Experimental data from patent publication US20090048247A1, “CONDENSED ISOXALINE DERIVATIVES AS INHIBITORS OF PHOSPHODIESTERASE TYPE - IV” (priority 2005, published 2009).
Values belong to the molecule of their own block, whether it stands above or below them.

Assays:
[1] = Solubility under the experimental conditions of the PDE-IV enzyme assay
Protocol: The PDE-4 enzyme source used was U937 cell cytosolic fraction prepared by sonication. The enzyme reaction was carried out, with the cytosolic fraction as the enzyme source, in the presence of cAMP (1 μM) at 30° C. in the presence or absence of NCE for 45-60 min. An aliquot of this reaction mixture was taken further for the ELISA assay to determine level of cAMP in the sample. The concentration of the cAMP in the sample directly correlates with the degree of PDE-4 enzyme inhibition.

[2] = test system: TNF-α release, human peripheral blood mononuclear cells; test: Cell Based Assay for TNF-α Release (LPS stimulation of Human PBMNC's); conditions: PBMC, LPS 1 μg/ml, TNF-α by ELISA, comparator, 4 repetitions
Protocol: Human whole blood was collected in vacutainer tubes containing heparin or EDTA as an anti coagulant. The blood was diluted (1:1) in sterile phosphate buffered saline and 10 ml. was carefully layered over 5 ml Ficoll Hypaque gradient (density 1.077 g/ml) in a 15 ml conical centrifuge tube. The sample was centrifuged at 3000 rpm for 25 minutes in a swing-out rotor at room temperature. After centrifugation, interface of cells were collected, diluted at least 1:5 with PBS and washed three times by centrifugation at 2500 rpm for 10 minutes at room temperature. The cells were resuspended in serum free RPMI 1640 medium at a concentration of 2 million cells/ml. Alternatively whole blood was used.
LPS stimulation of Human PBMNC's:
PBMN cells (0.1 ml; 2 million/ml) were co-incubated with 20 μl of compound (final DMSO concentration of 0.2%) for 10 min in a flat bottom 96 well microtiter plate. Compounds were dissolved in DMSO initially and diluted in medium for a final concentration of 0.2% DMSO. LPS (1 μg/ml, final concentration) was then added at a volume of 10 μl per well. After 30 min, 20 μl of fetal calf serum (final concentration of 10%) was added to each well. […] The level of TNFα in treated wells was compared with the vehicle treated controls and inhibitory potency of compound was expressed as IC50 values calculated by using Graph pad prism.

SMILES: c1cc(OC2CCCC2)c(OC2CCCCCC2)cc1C1=NOC2(CCOC2)C1 (stereo not drawn) [Compound No. 119, 3-[3-(Cycloheptyloxy)-4-(cyclopentyloxy)phenyl]-1,7-dioxa-2-azaspiro[4.4]non-2-ene]
solubility under the experimental conditions [1]: insoluble

melting point: 110.5 °C
SMILES: COc1ccc(C2=NO[C@]3(CCOC3)C2)cc1OC1CCCC1 [Compound No. 124, (S)-3-[3-(cyclopentyloxy)-4-methoxyphenyl]-1,7-dioxa-2-azaspiro[4.4]non-2-ene]

IC50 [2]: ~0.24 µM
SMILES: COc1ccc(C2CNC(=O)C2)cc1OC1CCCC1 (stereo not drawn) [rolipram]
